Data published in ChEMBL document CHEMBL3639024, “Azinone-substituted azapolycycle MCH-1 antagonists, methods of making, and use thereof” (2013).

Molecular target: Melanin-concentrating hormone receptor 1 (Homo sapiens, UniProt Q99705)
Test: Binding Assay: Evaluation of the affinity of compounds for the human MCH-1 receptor was accomplished using 4-(3,4,5-tritritiumbenzyloxy)-1-(1-(2-(pyrrolidin-1-yl)ethyl)-1H-indazol-5-yl)pyridin-2(1H)-one and membranes prepared from stable CHO-K1 cells expressing the human MCH1 receptor obtained from Euroscreen (Batch 1138).
Type: cell membranes

Sequence of Melanin-concentrating hormone receptor 1 (Q99705 whole entry): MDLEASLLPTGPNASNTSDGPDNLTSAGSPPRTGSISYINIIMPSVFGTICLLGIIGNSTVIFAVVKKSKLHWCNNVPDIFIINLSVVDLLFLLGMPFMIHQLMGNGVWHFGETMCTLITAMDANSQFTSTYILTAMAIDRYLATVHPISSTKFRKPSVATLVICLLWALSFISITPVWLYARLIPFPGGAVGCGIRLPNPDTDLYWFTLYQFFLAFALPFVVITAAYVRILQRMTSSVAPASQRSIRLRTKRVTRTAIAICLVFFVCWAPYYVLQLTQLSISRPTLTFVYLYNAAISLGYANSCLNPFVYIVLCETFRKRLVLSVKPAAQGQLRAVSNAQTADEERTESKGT

A Ki of 9.7 nM was found for `Cn1c2c(c3ccc(-n4ccc(OCc5ccc(F)cn5)cc4=O)cc31)CN1CCCC1C2` (stereo unspecified) in this work.
